Columns and labels:
lipoamide = compound: NC(=O)CCCCC1CCSS1 [lipoamide]; experiment: thermal stability z-score vs DMSO; higher = more thermally stabilized by treatment; conditions: HeLa, lipoamide concentration 100 µM
Experimental: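 Cellular thermal proteome profiling in HeLa cells. Cells were treated with 100 µM lipoamide for 1 h, with or without 1 mM arsenate for a further 1 h, then heated to ten temperatures (37-66.3 °C), and soluble protein was quantified by TMT mass spectrometry relative to 0.1% DMSO controls. The thermal stability score (sum of log2 fold changes minus the abundance score) was transformed to a z-score; mean of n = 3 experiments.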

potassium arsenate = compound: O=[As]([O-])(O)O.[K+] [potassium arsenate]; experiment: as above; conditions: HeLa; arsenate concentration 1 mM
Experimental: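 Cellular thermal proteome profiling in HeLa cells treated with 1 mM arsenate for 1 h (DMSO pretreatment), heated to ten temperatures (37-66.3 °C). Soluble protein was quantified by TMT mass spectrometry relative to DMSO controls; the thermal stability score was transformed to a z-score; mean of n = 3 experiments.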

[1] = arsenate co-treatment: 1 mM arsenate 1 h
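Further: each temperature applied for 3 min, abundance score taken as mean log2 fold change at the two lowest temperatures, z-score obtained by mean subtraction and division by SD.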

UniProt O15067, sequence (O15067 whole entry): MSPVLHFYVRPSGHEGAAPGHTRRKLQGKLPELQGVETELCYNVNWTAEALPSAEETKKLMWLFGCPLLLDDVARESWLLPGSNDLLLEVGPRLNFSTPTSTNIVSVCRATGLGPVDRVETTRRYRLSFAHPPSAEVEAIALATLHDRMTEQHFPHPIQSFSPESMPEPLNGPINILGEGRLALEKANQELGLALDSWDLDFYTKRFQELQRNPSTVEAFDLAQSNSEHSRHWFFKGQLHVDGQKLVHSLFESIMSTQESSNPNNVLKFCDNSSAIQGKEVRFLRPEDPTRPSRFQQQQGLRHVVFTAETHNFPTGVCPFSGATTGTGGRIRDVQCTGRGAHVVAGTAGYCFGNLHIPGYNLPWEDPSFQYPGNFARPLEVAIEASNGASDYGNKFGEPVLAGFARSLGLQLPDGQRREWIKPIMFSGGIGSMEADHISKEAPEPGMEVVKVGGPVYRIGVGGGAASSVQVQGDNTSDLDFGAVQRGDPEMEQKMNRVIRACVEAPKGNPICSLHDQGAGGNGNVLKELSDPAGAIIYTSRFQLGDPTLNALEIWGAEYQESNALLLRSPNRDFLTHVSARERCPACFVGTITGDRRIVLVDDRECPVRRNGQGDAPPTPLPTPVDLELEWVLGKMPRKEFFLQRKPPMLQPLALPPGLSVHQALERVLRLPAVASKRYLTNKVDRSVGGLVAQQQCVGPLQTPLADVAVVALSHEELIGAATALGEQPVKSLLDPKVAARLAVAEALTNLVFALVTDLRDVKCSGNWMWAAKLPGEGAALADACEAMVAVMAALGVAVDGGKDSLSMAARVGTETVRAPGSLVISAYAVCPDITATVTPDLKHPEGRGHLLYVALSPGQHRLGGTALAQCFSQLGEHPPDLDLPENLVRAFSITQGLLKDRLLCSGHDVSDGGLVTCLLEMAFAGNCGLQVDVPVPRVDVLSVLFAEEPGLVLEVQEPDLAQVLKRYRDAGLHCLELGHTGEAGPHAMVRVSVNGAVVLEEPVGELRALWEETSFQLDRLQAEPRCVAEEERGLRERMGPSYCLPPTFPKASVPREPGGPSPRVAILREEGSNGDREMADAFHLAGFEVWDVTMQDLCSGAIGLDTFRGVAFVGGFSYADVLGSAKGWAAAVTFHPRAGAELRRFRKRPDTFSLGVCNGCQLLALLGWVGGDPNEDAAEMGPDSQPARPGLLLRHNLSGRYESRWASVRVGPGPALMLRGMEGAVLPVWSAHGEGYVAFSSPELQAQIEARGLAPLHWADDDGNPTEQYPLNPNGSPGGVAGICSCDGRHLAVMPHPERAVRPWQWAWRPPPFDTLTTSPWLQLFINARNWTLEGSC
UniProt Q8IX04, sequence (Q8IX04 whole entry): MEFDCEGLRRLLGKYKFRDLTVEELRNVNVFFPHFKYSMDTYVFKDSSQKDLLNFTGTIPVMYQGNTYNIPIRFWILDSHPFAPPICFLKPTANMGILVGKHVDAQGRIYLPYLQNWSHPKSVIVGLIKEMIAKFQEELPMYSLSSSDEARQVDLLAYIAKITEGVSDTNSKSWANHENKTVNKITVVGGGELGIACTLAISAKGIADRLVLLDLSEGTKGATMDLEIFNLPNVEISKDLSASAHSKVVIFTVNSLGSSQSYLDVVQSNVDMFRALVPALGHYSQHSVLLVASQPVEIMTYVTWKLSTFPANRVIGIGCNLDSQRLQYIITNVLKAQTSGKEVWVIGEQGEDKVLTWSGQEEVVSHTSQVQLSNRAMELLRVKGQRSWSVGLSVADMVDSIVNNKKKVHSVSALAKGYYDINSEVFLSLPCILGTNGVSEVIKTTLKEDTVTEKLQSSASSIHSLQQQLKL
UniProt Q8IUD2, sequence (Q8IUD2 whole entry): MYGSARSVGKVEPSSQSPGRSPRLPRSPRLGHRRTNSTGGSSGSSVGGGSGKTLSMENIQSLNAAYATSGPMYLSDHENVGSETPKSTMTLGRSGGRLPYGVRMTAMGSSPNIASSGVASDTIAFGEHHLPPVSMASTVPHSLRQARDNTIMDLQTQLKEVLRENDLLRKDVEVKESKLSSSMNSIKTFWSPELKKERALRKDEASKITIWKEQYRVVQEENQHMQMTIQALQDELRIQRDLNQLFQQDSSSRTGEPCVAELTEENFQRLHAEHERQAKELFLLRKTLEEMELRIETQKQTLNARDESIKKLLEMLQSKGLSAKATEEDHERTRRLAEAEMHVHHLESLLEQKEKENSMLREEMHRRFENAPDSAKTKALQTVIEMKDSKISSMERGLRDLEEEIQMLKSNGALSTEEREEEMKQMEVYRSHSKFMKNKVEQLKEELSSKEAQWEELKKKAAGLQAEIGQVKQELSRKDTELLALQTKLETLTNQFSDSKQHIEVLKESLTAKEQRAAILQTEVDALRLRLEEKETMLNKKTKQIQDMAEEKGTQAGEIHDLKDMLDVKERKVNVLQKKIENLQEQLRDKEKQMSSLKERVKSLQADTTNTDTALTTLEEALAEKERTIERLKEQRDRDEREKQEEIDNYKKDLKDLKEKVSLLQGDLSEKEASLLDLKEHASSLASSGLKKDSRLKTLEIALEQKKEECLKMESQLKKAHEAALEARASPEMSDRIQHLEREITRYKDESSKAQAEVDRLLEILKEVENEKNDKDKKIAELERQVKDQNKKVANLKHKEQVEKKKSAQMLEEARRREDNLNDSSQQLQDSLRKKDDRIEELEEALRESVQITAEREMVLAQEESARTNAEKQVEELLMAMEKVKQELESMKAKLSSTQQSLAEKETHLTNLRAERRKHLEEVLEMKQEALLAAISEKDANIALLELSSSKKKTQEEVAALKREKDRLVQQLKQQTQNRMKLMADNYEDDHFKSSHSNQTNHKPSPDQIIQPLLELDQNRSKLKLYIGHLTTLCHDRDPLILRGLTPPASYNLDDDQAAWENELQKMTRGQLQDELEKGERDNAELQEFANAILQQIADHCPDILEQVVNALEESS
UniProt Q8IZP9, sequence (Q8IZP9 whole entry): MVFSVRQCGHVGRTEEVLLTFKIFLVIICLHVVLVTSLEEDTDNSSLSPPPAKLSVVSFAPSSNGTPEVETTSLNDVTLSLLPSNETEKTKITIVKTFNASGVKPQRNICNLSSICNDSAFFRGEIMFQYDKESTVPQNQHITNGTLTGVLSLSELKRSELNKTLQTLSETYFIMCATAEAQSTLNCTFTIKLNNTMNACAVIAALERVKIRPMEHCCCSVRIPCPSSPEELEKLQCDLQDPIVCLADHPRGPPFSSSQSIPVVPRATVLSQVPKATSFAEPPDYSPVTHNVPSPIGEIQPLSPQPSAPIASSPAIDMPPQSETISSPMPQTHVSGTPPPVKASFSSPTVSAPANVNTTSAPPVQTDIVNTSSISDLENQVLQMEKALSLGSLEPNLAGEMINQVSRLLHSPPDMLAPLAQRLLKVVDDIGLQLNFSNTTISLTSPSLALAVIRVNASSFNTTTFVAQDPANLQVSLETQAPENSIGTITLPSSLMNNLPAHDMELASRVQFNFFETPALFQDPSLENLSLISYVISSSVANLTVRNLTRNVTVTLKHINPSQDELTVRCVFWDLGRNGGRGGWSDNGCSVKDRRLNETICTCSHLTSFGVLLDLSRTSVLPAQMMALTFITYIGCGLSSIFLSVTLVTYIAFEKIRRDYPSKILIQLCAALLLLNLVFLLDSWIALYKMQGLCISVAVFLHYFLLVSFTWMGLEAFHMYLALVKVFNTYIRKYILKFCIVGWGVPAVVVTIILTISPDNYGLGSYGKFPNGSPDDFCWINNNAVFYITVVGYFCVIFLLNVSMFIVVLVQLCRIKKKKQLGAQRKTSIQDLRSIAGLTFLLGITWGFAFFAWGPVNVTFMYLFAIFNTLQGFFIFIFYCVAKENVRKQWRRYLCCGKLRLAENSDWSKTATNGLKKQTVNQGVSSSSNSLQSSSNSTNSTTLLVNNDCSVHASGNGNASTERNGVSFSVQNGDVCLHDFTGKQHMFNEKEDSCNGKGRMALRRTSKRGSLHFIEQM
UniProt P09132, sequence (P09132 whole entry): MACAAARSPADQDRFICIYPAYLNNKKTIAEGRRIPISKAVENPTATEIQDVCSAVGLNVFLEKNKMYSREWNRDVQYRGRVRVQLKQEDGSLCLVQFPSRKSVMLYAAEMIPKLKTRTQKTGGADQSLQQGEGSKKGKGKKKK
UniProt Q9BRG1, sequence (Q9BRG1 whole entry): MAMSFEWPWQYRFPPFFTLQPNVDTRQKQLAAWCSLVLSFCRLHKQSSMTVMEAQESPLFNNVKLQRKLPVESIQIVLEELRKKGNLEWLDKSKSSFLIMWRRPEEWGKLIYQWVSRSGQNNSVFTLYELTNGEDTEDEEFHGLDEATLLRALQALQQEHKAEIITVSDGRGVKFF
UniProt P30044, sequence (P30044 whole entry): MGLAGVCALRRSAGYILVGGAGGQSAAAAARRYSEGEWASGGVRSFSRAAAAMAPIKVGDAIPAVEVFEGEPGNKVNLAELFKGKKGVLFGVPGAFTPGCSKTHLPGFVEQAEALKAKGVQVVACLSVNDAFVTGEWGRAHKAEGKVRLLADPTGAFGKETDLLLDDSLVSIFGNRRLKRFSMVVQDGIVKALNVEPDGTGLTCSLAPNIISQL

Row | Target | thermal stability z-score (lipoamide; [1]) | thermal stability z-score (lipoamide; arsenate co-treatment: none) | thermal stability z-score (potassium arsenate)
1 | KPNA6 (UniProt O60684) | -0.328 | -0.314 | 0.446
2 | SRP19 (UniProt P09132) | -0.296 | -0.485 | 0.033
3 | HAGH (UniProt Q16775) | 0.41 | -0.0853 | 0.158
4 | ADGRG2 (UniProt Q8IZP9) | -0.0216 | 0.386 | -0.592
5 | GLG1 (UniProt Q92896) | -1.88 | -1.9 | -0.0446
6 | CCDC86 (UniProt Q9H6F5) | -0.342 | -0.895 | -2.01
7 | CERCAM (UniProt Q5T4B2) | -0.0616 | -0.543 | -0.44
8 | MRPS35 (UniProt P82673) | -0.663 | -0.362 | -0.0913
9 | TXLNA (UniProt P40222) | 0.459 | 0.0728 | 2.4
10 | BRAP (UniProt Q7Z569) | -0.31 | 0.051 | 0.485
11 | DMXL1 (UniProt Q9Y485) | 0.485 | 0.00841 | -0.0177
12 | PC (UniProt P11498) | -0.429 | -0.205 | -0.574
13 | BIN1 (UniProt O00499) | -0.407 | -0.803 | 0.183
14 | PML (UniProt P29590) | 1.95 | 0.537 | 5.01
15 | NDUFB5 (UniProt O43674) | -0.958 | -0.151 | 0.226
16 | PRDX5 (UniProt P30044) | -0.275 | 0.138 | -0.761
17 | KIAA2013 (UniProt Q8IYS2) | 1.03 | 1.5 | -1.04
18 | FAM98B (UniProt Q52LJ0) | 0.052 | -0.438 | -1.01
19 | PRPF38B (UniProt Q5VTL8) | -0.807 | -0.366 | -0.358
20 | CAMK1D (UniProt Q8IU85) | -0.513 | -0.221 | 0.553
21 | ERC1 (UniProt Q8IUD2) | -0.3 | -0.166 | 0.574
22 | NUP93 (UniProt Q8N1F7) | -0.614 | -0.482 | 0.232
23 | PFAS (UniProt O15067) | -0.279 | 0.208 | -1.25
24 | BDH2 (UniProt Q9BUT1) | -0.0305 | -0.246 | -0.414
25 | TMUB2 (UniProt Q71RG4) | 1.9 | 1.78 | 2.27
26 | WDR61 (UniProt Q9GZS3) | 0.936 | 0.285 | -0.236
27 | TNPO1 (UniProt Q92973) | -1.32 | -1.31 | 1.98
28 | IGSF8 (UniProt Q969P0) | 0.26 | 0.326 | 0.893

Row | Target | thermal stability z-score (lipoamide; [1]) | thermal stability z-score (lipoamide; arsenate co-treatment: none) | thermal stability z-score (potassium arsenate)
29 | ABCF2 (UniProt Q9UG63) | -0.652 | -0.279 | 1.72
30 | PALLD (UniProt Q8WX93) | -0.57 | 0.141 | -0.249
31 | MRPS22 (UniProt P82650) | -0.329 | 0.295 | -0.109
32 | MFSD5 (UniProt Q6N075) | 0.0483 | 0.442 | 0.661
33 | ITPR3 (UniProt Q14573) | -1.24 | -0.526 | -0.418
34 | CCDC134 (UniProt Q9H6E4) | -2.13 | -1.37 | -0.0932
35 | RQCD1 (UniProt Q92600) | -0.57 | -0.143 | 0.74
36 | TSC1 (UniProt Q92574) | 0.103 | -0.0297 | -0.0936
37 | UFM1 (UniProt P61960) | 0.193 | 0.534 | 0.181
38 | PRKAA1 (UniProt Q13131) | -0.417 | -0.0988 | 0.048
39 | AGO1 (UniProt Q9UL18) | -0.0919 | -0.396 | -0.337
40 | ETF1 (UniProt P62495) | 0.635 | 0.513 | -0.148
41 | STEAP3 (UniProt Q658P3) | 0.104 | 0.572 | -0.122
42 | USP25 (UniProt Q9UHP3) | -0.18 | -0.113 | 0.667
43 | VPS25 (UniProt Q9BRG1) | -0.593 | -0.349 | 0.0183
44 | STAG2 (UniProt Q8N3U4) | 0.281 | 0.393 | -0.0489
45 | KNOP1 (UniProt Q1ED39) | 0.735 | -0.755 | 0.831
46 | UEVLD (UniProt Q8IX04) | 0.183 | 0.107 | 0.0354
47 | DBR1 (UniProt Q9UK59) | 0.0885 | -0.174 | 0.5
48 | PIEZO1 (UniProt Q92508) | -0.342 | 0.0689 | 0.19
49 | DCP1A (UniProt Q9NPI6) | -0.2 | -0.107 | -0.248
50 | CLNS1A (UniProt P54105) | 0.733 | 0.695 | -1.75
51 | APP (UniProt P05067) | -1.82 | -1.75 | 0.137
52 | RHOC (UniProt P08134) | 0.307 | 0.963 | 0.995
53 | TRIP11 (UniProt Q15643) | -2.35 | -0.484 | 0.782
54 | ABHD16A (UniProt O95870) | -0.193 | -0.0821 | 1.11
55 | RAP1GAP2 (UniProt Q684P5) | 1.12 | 0.923 | 0.124
